From patent publication US7435438B1, “Disinfectant and method of use” (Pure BioScience, priority 2003, dated 2008)

Key:
[1] = system: dermal lesions both contaminated and infected with gram negative and gram positive bacteria
[2] = system: Proprionibacterium acnes ATCC 6921; conditions: 30 ppm
[3] = system: Pseudomonas aeruginosa ATCC 15422
[4] = system: Staphylococcus aureus ATCC 6538
[5] = system: Salmonella cholerasuis ATCC 10708
[6] = system: Listeria monocytogenes ATCC 19111; conditions: 30 ppm
[7] = system: E. coli 0157 ATCC 43888
[8] = system: Enterococcus facium (VRE) ATCC 700221; conditions: 30 ppm
[9] = system: Staphylococcus aureus (MRSA) ATCC 700698; conditions: 30 ppm
[10] = system: Trichophyton Mentagrophytes ATCC 9533; conditions: 30 ppm
[11] = system: HIV type1, Strain HTLV = IIIB
[12] = system: Herpes simplex type I ATCC VR-733, Strain F(1)
[13] = system: Rhinovirus R37 ATCC VR-1147, Strain 151-1
[14] = system: Influenza A ATCC VR-544, Hong Kong Strain
[15] = system: Poliovirus type 2 ATCC VR-1002, Strain Lansing
[16] = system: E. coli ATCC 11229
[17] = system: listeria monocytogenes ATCC 11543
[18] = system: Enterococcus faecium ATCC 6569
[19] = system: L. pneumophila
[20] = system: Legionella in biofilm and planktonic samples
[21] = system: heterotrophic bacteria (HBC) in biofilm and planktonic phases
[22] = system: total bacteria present; conditions: approximately 5 ppm for 5 seconds, drip dry 10 seconds, rinse in 0.1 ppm for 5 seconds; fruits, vegetables, fish and shrimp
[23] = system: pathogenic bacterial populations, biofilms
[24] = system: SARS
[25] = equine, observed repeatedly during the study

Substance: silver dihydrogen citrate
- efficacy for irrigating deep wounds and abscesses ([1]; equine): very efficacious
- granulation / fibrosis ([1]; equine): promote healthy granulation without excessive fibrosis
- healing time [1, 25]: Decreased healing time
- scar formation [1, 25]: reduction in scar formation
- performance on dermal lesions compared to available disinfectant products on the market ([1]; equine, wet dressings or spray): superior performance
- healing and draining of deep wounds closed with drains ([1]; flushed with the disinfectant): rapid healing time and reduced draining
- uterine flush for bacterial and/or fungal/yeast infection ([1]; preliminary results): very promising
- KILL TIME [2]: 15-seconds
- KILL TIME [3]: 30-seconds
- effectiveness as hard surface disinfectant with direct food contact [3]: effective
- KILL TIME [4]: 30-seconds
- effectiveness as hard surface disinfectant with direct food contact [4]: effective
- KILL TIME [5]: 30-seconds
- effectiveness as hard surface disinfectant with direct food contact [5]: effective
- KILL TIME [6]: 30-seconds
- KILL TIME [7]: 2-minute
- effectiveness as hard surface disinfectant with direct food contact [7]: effective
- KILL TIME [8]: 2-minute
- KILL TIME [9]: 2-minute
- exposure after which the fungus is killed [10]: 10 min
- KILL TIME [11]: 30-second
- effectiveness as hard surface disinfectant with direct food contact [11]: effective
- KILL TIME [12]: 1-minute
- effectiveness as hard surface disinfectant with direct food contact [12]: effective
- KILL TIME [13]: 10-minute
- effectiveness as hard surface disinfectant with direct food contact [13]: effective
- KILL TIME [14]: 10-minute
- effectiveness as hard surface disinfectant with direct food contact [14]: effective
- KILL TIME [15]: 10-minute
- effectiveness as hard surface disinfectant with direct food contact [15]: effective
- effectiveness as hard surface disinfectant with direct food contact [16]: effective
- effectiveness as hard surface disinfectant with direct food contact [17]: effective
- effectiveness as hard surface disinfectant with direct food contact [18]: effective
- result of ASTM E645-97 test [19]: passed
- killing of Legionella (in words) [20]: killed Legionella
- reduction of heterotrophic bacteria [21]: did not significantly reduce
- total bacteria present eliminated [22]: 99.99%
- mortality in shrimp raising tanks [23]: decreasing
- pathogenic bacterial populations, biofilms ([23]; shrimp raising tanks): significantly reducing
- effectiveness as hard surface disinfectant with direct food contact [24]: will be effective
